Assay results taken from ChEMBL document CHEMBL3352451, “Cyclic side-chain-linked opioid analogs utilizing cis- and trans-4-aminocyclohexyl-D-alanine” (Bioorg Med Chem, 2014).
Bridge positions count the residues as written; N and C are the ends. Square brackets hold non-standard residues; d marks the D form. Peptide text beside a SMILES is read from it.

Experiments:
[1] = target: Mu-type opioid receptor (Rattus norvegicus, UniProt P33535); test: Displacement of [3H]DAMGO from MOR in Wistar rat brain membranes by liquid scintillation counting method; type: cell membranes, Membrane
[2] = target: Delta-type opioid receptor (Rattus norvegicus, UniProt P33533); test: Displacement of [3H][Ile5,6]deltorphin-2 from DOR in Wistar rat brain membranes by liquid scintillation counting method; type: cell membranes, Membrane
[3] = target: Kappa-type opioid receptor (Cavia porcellus, UniProt P41144); test: Displacement of [3H]nor-BNI from KOR in Dunkin Hartley guinea pig membranes by liquid scintillation counting method; type: cell membranes
Kappa-type opioid receptor, sequence (P41144 whole entry): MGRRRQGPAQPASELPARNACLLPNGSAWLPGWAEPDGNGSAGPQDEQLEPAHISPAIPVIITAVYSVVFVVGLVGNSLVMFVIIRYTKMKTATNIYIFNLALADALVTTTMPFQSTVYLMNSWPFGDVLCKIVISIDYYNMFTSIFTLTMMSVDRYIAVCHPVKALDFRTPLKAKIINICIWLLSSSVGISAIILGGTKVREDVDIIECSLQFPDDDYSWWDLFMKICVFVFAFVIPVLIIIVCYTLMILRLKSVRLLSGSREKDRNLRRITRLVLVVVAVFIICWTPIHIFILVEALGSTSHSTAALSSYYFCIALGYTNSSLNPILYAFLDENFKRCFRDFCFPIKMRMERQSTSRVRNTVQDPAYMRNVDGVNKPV

Mu-type opioid receptor, sequence (P33535 whole entry): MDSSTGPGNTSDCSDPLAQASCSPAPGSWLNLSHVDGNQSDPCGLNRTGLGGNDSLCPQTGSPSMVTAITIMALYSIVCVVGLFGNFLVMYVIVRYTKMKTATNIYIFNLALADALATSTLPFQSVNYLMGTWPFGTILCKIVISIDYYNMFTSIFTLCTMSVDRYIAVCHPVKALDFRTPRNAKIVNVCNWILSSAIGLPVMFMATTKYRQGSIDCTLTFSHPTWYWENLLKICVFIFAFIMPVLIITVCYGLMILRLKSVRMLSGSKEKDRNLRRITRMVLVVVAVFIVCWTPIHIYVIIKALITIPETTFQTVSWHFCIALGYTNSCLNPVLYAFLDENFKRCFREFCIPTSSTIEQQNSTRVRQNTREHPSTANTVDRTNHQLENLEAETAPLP
Delta-type opioid receptor, sequence (P33533 whole entry): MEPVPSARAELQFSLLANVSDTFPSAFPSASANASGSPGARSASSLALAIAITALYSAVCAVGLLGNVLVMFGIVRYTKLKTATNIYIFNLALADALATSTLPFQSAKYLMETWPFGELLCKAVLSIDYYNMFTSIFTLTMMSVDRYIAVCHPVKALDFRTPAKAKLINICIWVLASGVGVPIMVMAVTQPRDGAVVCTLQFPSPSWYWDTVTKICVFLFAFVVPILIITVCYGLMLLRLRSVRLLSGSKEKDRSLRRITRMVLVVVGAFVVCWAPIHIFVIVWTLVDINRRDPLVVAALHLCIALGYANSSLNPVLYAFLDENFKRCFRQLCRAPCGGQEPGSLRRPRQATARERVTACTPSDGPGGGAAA

Compound: NC(=O)[C@@H]1CC(=O)N[C@H]2CC[C@H](CC2)C[C@@H](NC(=O)[C@@H](N)Cc2ccc(O)cc2)C(=O)N[C@@H](Cc2ccccc2)C(=O)N[C@@H](Cc2ccccc2)C(=O)N1
- IC50 [1]: 3.2 nM
- IC50 [2]: > 1000 nM

Compound: NC(=O)[C@@H]1CC(=O)N[C@H]2CC[C@@H](CC2)C[C@@H](NC(=O)[C@@H](N)Cc2ccc(O)cc2)C(=O)N[C@@H](Cc2ccccc2)C(=O)N[C@@H](Cc2ccccc2)C(=O)N1
- IC50 [1]: 2.08 nM
- IC50 [2]: 3.9 nM

Compound: Cc1cc(O)cc(C)c1C[C@H](N)C(=O)N[C@@H]1C[C@H]2CC[C@H](CC2)NC(=O)C[C@@H](C(N)=O)NC(=O)[C@H](Cc2ccccc2)NC(=O)[C@H](Cc2ccccc2)NC1=O
- IC50 [1]: 0.04 nM
- IC50 [2]: > 1000 nM
- IC50 [3]: > 1000 nM

Compound: Cc1cc(O)cc(C)c1C[C@H](N)C(=O)N[C@@H]1C[C@H]2CC[C@@H](CC2)NC(=O)C[C@@H](C(N)=O)NC(=O)[C@H](Cc2ccccc2)NC(=O)[C@H](Cc2ccccc2)NC1=O
- IC50 [1]: 0.022 nM
- IC50 [2]: 0.38 nM
- IC50 [3]: 25 nM

Compound: NC(=O)[C@@H]1CC(=O)NCCCC[C@@H](NC(=O)[C@@H](N)Cc2ccc(O)cc2)C(=O)N[C@@H](Cc2ccccc2)C(=O)N[C@@H](Cc2ccccc2)C(=O)N1 (H-Y[dK]FFD-NH2; lactam 2-5)
- IC50 [3]: 2.36 nM
